Measured values taken from publication PMC6718442, “11β-Hydroxysteroid dehydrogenases control access of 7β,27-dihydroxycholesterol to retinoid-related orphan receptor γ” (Journal of Lipid Research, 2019).
Where “and” joins values, the source holds several entries; their conditions need not be identical. Identical values can stand only once.

Columns and labels:
11β-HSD2 [1] = molecular target: T1, 11β-HSD2 (Homo sapiens, UniProt P80365); test: Inhibition of 11β-HSD2-dependent oxidation of cortisol in HEK-293 cell lysates; assay type: biochemical; details: for IC50: human enzyme, 50 nM cortisol, 10 min, 37°C, read-out: IC50, 11β-HSD2-dependent conversion of cortisol to cortisone
T1 construct: expressed in transfected cells
T1 sequence (P80365 1-405): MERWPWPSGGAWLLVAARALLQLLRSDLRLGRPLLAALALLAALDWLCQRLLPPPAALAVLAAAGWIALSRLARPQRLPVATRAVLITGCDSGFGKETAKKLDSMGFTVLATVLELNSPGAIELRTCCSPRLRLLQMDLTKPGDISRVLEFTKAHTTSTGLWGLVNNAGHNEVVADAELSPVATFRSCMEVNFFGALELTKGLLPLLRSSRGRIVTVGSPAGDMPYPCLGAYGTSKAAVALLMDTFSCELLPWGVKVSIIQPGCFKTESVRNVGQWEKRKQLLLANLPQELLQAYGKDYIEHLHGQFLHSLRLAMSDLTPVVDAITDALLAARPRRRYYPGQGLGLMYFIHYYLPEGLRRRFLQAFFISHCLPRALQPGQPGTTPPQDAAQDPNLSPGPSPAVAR
Method: 11β-HSD1 and 11β-HSD2 enzyme activities were assessed in lysates of HEK-293 cells stably expressing the respective enzyme as reported earlier ([40]). Briefly, 11β-HSD1-dependent oxoreductase activity was determined by the incubation of lysates with 200 nM of radiolabeled cortisone, 500 μM of NADPH, and the test substance or vehicle for 10 min at 37°C. 11β-HSD2-dependent oxidation of cortisol was measured instead by the addition of 50 nM of radiolabeled cortisol and 500 μM of NAD^+. The enzymatic reaction was stopped by introducing an excess amount of unlabeled cortisone and cortisol (1:1, 2 mM unlabeled each, in methanol). Cortisone and cortisol were separated using TLC and a chloroform and methanol (9:1, v/v) mixture. The bands were detected under UV light, scraped off the plate, and metabolism of the radiolabeled substrate was then evaluated by scintillation counting and the substrate conversion determined and compared with the control sample. Data (mean ± SD) were normalized to the control (DMSO) sample and obtained from at least three independent experiments.

human 11β-HSD1 = molecular target: T2, human 11β-HSD1 (Homo sapiens, UniProt P28845); test: 11β-HSD1-dependent metabolism of 7-oxygenated 27OHCs in intact HEK-293 cells expressing 11β-HSD1 and H6PDH; assay type: cell-based; details: for Metabolism by 11β-HSD1 in intact cells (in words): 1 μM substrate, 60 min
T2 construct: expressed in transfected cells
Method: (§1) Fifty thousand stably transfected HEK-293 cells expressing either 11β-HSD2 [clone AT8 ([34])] or 11β-HSD1 and hexose-6-phosphate dehydrogenase (H6PDH) [clone HHH7 ([35])] were seeded in poly-L-lysine-coated 96-well plates and incubated for 24 h. H6PDH provides the cofactor NADPH and is required for an efficient oxoreduction reaction by 11β-HSD1 ([36]). The medium was changed to steroid- and phenol red-free DMEM (DMEM SF) for another 2 h and the cells were then treated with 1 μM of 7k27OHC in the presence or absence of 1 μM of T0504 (to inhibit 11β-HSD1) or 0.5 μM of 7β27OHC or 7α27OHC in the presence or absence of 5 μM of glycyrrhetinic acid (GA) (to inhibit 11β-HSD2). Metabolic conversion was determined after 0.5 h for 11β-HSD2 and after 1 h for 11β-HSD1.
(§2) Ice-cold acetonitrile:isopropanol (7:3, v/v) mixture containing either 100 nM deuterium-labeled 7β27OHC or corticosterone as internal standards were used to extract oxysterols from cell culture supernatants. Additionally, 1.5% (v/v) of a standard solution of the antioxidant butylated hydroxytoluene (BHT) and the peroxide reducing agent triphenylphosphine (TPP) (10 mg BHT and 25 mg TPP in 10 ml ethanol) was added ([37]). In experiments with SW-620 cells, oxysterols were extracted from cell supernatants and cells. The samples were incubated for 30 min at 4°C and 700 rotations per minute, centrifuged (16,000 g, 10 min, 4°C), and the supernatant evaporated to dryness under nitrogen to minimize oxidation from atmospheric oxygen. After reconstitution in 50 μl of methanol:ultra-pure water (1:1, v/v), the samples were again centrifuged (16,000 g, 10 min, 4°C) and the supernatants analyzed. Data (mean ± SD) were obtained from three independent experiments.
An Agilent 1290 Infinity UHPLC binary solvent delivery system including a temperature controlled autosampler and a column oven coupled to an Agilent 6490 triple quadrupole mass spectrometer with a jet stream electrospray ionization interface (AJS-ESI) (Agilent Technologies) was used to analyze oxysterols. A reversed-phase column (ACQUITY UPLC BEH C18, 1.7 μm, 2.1 × 150 mm; Waters, Wexford, Ireland) heated to 65 ± 0.8°C was applied for analyte separation. The flow-rate was 0.5 ml with solvent A [water/acetonitrile/formic acid (95/5/0.1, v/v/v)] and solvent B [water/acetonitrile/formic acid (5/95/0.1, v/v/v)]. The eluent gradient was set as follows: 0–4.5 min 45–97% B, 4.5–7 min 80% B (washout), and 7–9 min 45% B (column re-equilibration). Methanol/water (75/25, v/v) was used as needle and needle-seat flushing solvent for 10 s after sample aspiration. The samples were stored in the autosampler at 4°C until analysis. […]

11β-HSD2 [2] = molecular target: T1, 11β-HSD2; test: 11β-HSD2-dependent metabolism of 7-oxygenated 27OHCs in intact HEK-293 cells expressing 11β-HSD2; assay type: cell-based; details: for Metabolism by 11β-HSD2 in intact cells (in words): 500 nM substrate, 30 min
Method: as §1, §2
An Agilent 1290 Infinity UHPLC binary solvent delivery system including a temperature controlled autosampler and a column oven coupled to an Agilent 6490 triple quadrupole mass spectrometer with a jet stream electrospray ionization interface (AJS-ESI) (Agilent Technologies) was used to analyze oxysterols. […]

T2 sequence (P28845 whole entry): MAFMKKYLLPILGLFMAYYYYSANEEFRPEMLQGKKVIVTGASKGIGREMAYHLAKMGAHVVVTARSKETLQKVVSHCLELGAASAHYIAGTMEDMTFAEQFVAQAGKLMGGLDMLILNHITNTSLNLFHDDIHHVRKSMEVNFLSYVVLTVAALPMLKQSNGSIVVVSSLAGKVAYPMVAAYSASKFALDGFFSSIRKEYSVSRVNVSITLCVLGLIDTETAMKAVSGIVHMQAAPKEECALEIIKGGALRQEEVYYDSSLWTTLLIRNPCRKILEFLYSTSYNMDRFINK

SMILES | IC50 (11β-HSD2 [1]) [nM] | Metabolism by 11β-HSD1 in intact cells (in words) (human 11β-HSD1) | Vapp cell intact (human 11β-HSD1; intact HEK-293 cells, substrate concentration 1 μM) | Inhibition of human 11β-HSD2 (in words) (11β-HSD2 [1]; not shown) | Metabolism by 11β-HSD2 in intact cells (in words) (11β-HSD2 [2]) | Vapp cell intact (11β-HSD2 [2]; intact HEK-293 cells, substrate concentration 500 nM)
CC(CO)CCC[C@@H](C)[C@H]1CC[C@H]2[C@@H]3C(=O)C=C4C[C@@H](O)CC[C@]4(C)[C@H]3CC[C@]12C (stereo partly shown) [7k27OHC, 7-keto,27-hydroxycholesterol] | 15 ± 1 | stereo-specifically converted to 7β27OHC | 0.52 ± 0.10 nmol·h^−1·mg total protein^−1 and 0.52 ± 0.10^a nmol·h^−1·mg total protein^−1 |  |  | 
C[C@@H](CO)CCC[C@@H](C)[C@H]1CC[C@H]2[C@@H]3[C@H](O)C=C4C[C@@H](O)CC[C@]4(C)[C@H]3CC[C@]12C [7α27OHC] |  | neither 7α27OHC nor 7β27OHC was oxidized |  | did not inhibit | lack of 7α27OHC metabolism | 
CC(CO)CCC[C@@H](C)[C@H]1CC[C@H]2[C@@H]3[C@@H](O)C=C4C[C@@H](O)CC[C@]4(C)[C@H]3CC[C@]12C (stereo partly drawn) [7β27OHC, 7β,27-dihydroxycholesterol] | 11 ± 2 | neither 7α27OHC nor 7β27OHC was oxidized |  |  | exclusive oxidation of 7β27OHC to 7k27OHC | 0.6 ± 0.1 nmol·h^−1·mg total protein^−1 and 0.6 ± 0.1^b nmol·h^−1·mg total protein^−1
